Results published in patent US5726162A (priority 1996, dated 1998).
Like-named read-outs stand apart in the source and are kept apart here.

Legend:
[1] = test system: Magnaporthe grisea (Pyricularia oryzae); experiment: whole plant or invertebrate; type: in vivo, Magnaporthe grisea (Pyricularia oryzae) on M201 rice plants; conditions: Pyricularia oryzae, 144 h, read-out: % Control RB
fungal inoculum = experiment: organism not typed; type: cell-based; conditions: read-out: % growth inhibition
[2] = test system: Thanatephorus cucumeris (Rhizoctonia solani); experiment: In vivo test b) Rice Sheath Blight (RSB), 24 hour preapplication protectant, % control; conditions: for pest or weed control at 200 ppm: read-out: % Control RSB
Procedure: Compounds were tested at 200 ppm as a twenty-four hour preapplication protectant test prior to inoculation.
b) Rice Sheath Blight (RSB)
Thanatephorus cucumeris (Rhizoctonia solani) mycelia were grown for six days in potato dextrose broth in shake culture. Drained mycelial mats were blended with an approximately equal weight of rice flour and five parts water. This slurry was dispensed onto the soil surface of pots containing rice seedlings previously treated with experimental compounds. The plants were placed in a mist chamber at 25°-28° C. for 48 hours. Following two more days at 25° C. and 70-90% relative humidity the plants were evaluated for percent disease control compared to check plants.

Candida albicans = experiment: Activity against Candida albicans in microtiter plates, % control of growth; type: cell-based
Procedure: The activity against Candida albicans was determined using the following test protocol.
Conidia and mycelium from the Candida albicans culture maintained on potato dextrose agar plates were lightly scraped off into yeast extract-dextrose broth (YDB) so that mostly conidia was used as inoculum. The conidial suspsension was strained through a double layer of cheesecloth to remove mycelial clumps. The inoculum mixture was placed in microtiter plates using a 12-tipped pipet. 175 microliters were placed in each well of the microliter plates and the plates were placed in the refrigerator overnight. There were two replications.
The compounds to be tested were dissolved in 1:1 acetone:methanol and 100 ppm of the compound solution were placed in a well of the prepared microtiter plates.
The microtiter plates were incubated for 7 days at room temperature after addition of the compounds. Percent control was visually estimated using a microtiter plate reading mirror. Readings were made at 1, 2, 3, and/or 7 days after treatment.

fungal mycelium = experiment: organism not typed; type: cell-based; conditions: read-out: % growth inhibition
[3] = 24 h, 1 day after treatment, read-out: % control of growth +1
[4] = 48 h, 2 days after treatment, read-out: % control of growth +2
[5] = 72 h, 3 days after treatment, read-out: % control of growth +3

| SMILES | pest or weed control at 200 ppm [1] [%] | pest or weed control at 200 ppm ([2]; 200 ppm, protectant) [%] | inhibition at 100 ppm (fungal inoculum) [%] | also measured |
| --- | --- | --- | --- | --- |
| CC#CCN1N=C(c2ccc(Cl)cc2)CCC1=O [Compound 1] | 90 | 0 |  | inhibition at 5 ppm (fungal inoculum): 92.7% |
| COc1ccc(C2=NN(CCCO)C(=O)CC2)cc1 [Compound 2] | 0 | 0 | 0 |  |
| CCC(O)CN1N=C(c2ccc(Cl)c(Cl)c2)CCC1=O (stereo not drawn) [Compound 3] | 0 | 0 | 53.6 |  |
| CCC(O)CN1N=C(c2ccc(Cl)cc2)CCC1=O (stereo not drawn) [Compound 4] | 0 | 0 | 26.7 |  |
| O=C1CCC(c2ccc(Cl)c(Cl)c2)=NN1CCCO [Compound 5] | 0 | 50 | 75 |  |
| C#CCN1N=C(c2ccc(Cl)cc2)CCC1=O [Compound 6, 6-(4-chlorophenyl)-2-propargyl-4,5-dihydropyridazinone] | 0 | 0 | 91.5 |  |
| CCCCN1N=C(c2ccc(Cl)cc2)CCC1=O [Compound 7] | 0 | 0 | 94.4 |  |
| CC=CCN1N=C(c2ccc(Cl)cc2)CCC1=O [Compound 8] | 0 | 0 | 96.2 |  |
| CC#CCN1N=C(c2ccccc2)CCC1=O [Compound 9] | 0 | 0 | 94.4 |  |
| O=C1CCC(c2ccc(Cl)cc2)=NN1Cc1ccccc1 [Compound 10] |  |  | 100 | pest or weed control at 200 ppm [2]: 80% |
| CC#CCN1N=C(c2ccc(OC)cc2)CCC1=O [Compound 11, 6-(4-methoxyphenyl)-2-(2'-butynyl)-4,5-dihydropyridazinone] | 0 | 0 |  | inhibition at 10 ppm (fungal inoculum): 87.7% |
| CC#CCN1N=C(c2ccc(F)cc2)CCC1=O [Compound 13] | 50 | 50 |  | inhibition at 10 ppm (fungal inoculum): 87% |
| CC(C)(C)N1N=C(c2ccc(Cl)cc2)CCC1=O [Compound 15, 6-(4-chlorophenyl)-4,5-dihydro-2-t-butylpyridazinone] | 0 | 50 |  | inhibition at 50 ppm (fungal inoculum): 37.1% |
| O=C1CCC(c2ccc(Cl)cc2)=NN1C(=O)c1ccccc1 [Compound 16] | 0 | 50 |  | inhibition at 50 ppm (fungal inoculum): 12.7% |
| O=C1CCC(c2ccc(Cl)cc2)=NN1CC#Cc1ccccc1 [Compound 17] | 0 | 80 |  | inhibition at 25 ppm (fungal inoculum): 91.9% |
| CC#CCN1N=C(c2ccc(C)cc2)CCC1=O [Compound 18] | 0 | 0 |  | inhibition at 5 ppm (fungal inoculum): 88.4% |
| CC#CCN1N=C(c2ccc(Cl)cc2Cl)CCC1=O [Compound 19] | 50 | 0 | 96.8 |  |
| CC#CCN1N=C(c2ccc(OC)c(F)c2)CCC1=O [Compound 20] | 0 | 0 |  | inhibition at 10 ppm (fungal inoculum): 100% |

| SMILES | pest or weed control at 200 ppm [1] [%] | pest or weed control at 200 ppm ([2]; 200 ppm, protectant) [%] | inhibition at 100 ppm (fungal inoculum) [%] | also measured |
| --- | --- | --- | --- | --- |
| CC#CCCN1N=C(c2ccc(Cl)cc2)CCC1=O [Compound 21] | 0 | 0 | 45.8 |  |
| C#CC=CCN1N=C(c2ccc(Cl)cc2)CCC1=O [Compound 84] | 95 | 0 |  | inhibition at 50 ppm (fungal inoculum): 75.8% |
| C=CC#CCN1N=C(c2ccc(Cl)c(F)c2)CCC1=O [Compound 100] | 100 | 0 |  | inhibition of growth at 100 ppm (Candida albicans; [3]): 100%; inhibition of growth at 100 ppm (Candida albicans; [4]): 100%; inhibition of growth at 100 ppm (Candida albicans; [5]): 100%; inhibition at 0.16 ppm (fungal mycelium): 100% |
| CC#CCn1nc(-c2ccc(Cl)cc2)ccc1=O [Compound 108] | 95 | 50 |  | inhibition at 5 ppm (fungal inoculum): 100% |
| C=CC#CCn1nc(-c2ccc(Cl)cc2)ccc1=O [Compound 119] |  |  |  | inhibition of growth at 100 ppm (Candida albicans; [3]): 100%; inhibition of growth at 100 ppm (Candida albicans; [4]): 100%; inhibition of growth at 100 ppm (Candida albicans; [5]): 100%; inhibition of growth at 100 ppm (Candida albicans; 168 h, 7 days after treatment, read-out: % control of growth +7): 100%; pest or weed control at 100 ppm [1]: 95%; inhibition at 5 ppm (fungal inoculum): 99.3%; pest or weed control at 100 ppm ([2]; protectant): 0% |
| C=CC#CCn1nc(-c2ccc(Cl)c(F)c2)ccc1=O [Compound 128] | 95 | 0 |  | inhibition of growth at 100 ppm (Candida albicans; [3]): 100%; inhibition of growth at 100 ppm (Candida albicans; [4]): 100%; inhibition of growth at 100 ppm (Candida albicans; [5]): 100%; inhibition at 0.156 ppm (fungal mycelium): 100% |
| CCC#CCn1nc(-c2ccc(F)c(Cl)c2)ccc1=O [Compound 129] | 0 | 0 |  | inhibition at 1 ppm (fungal mycelium): 100% |
| CC#CCN1N=C(c2cccnc2)CCC1=O [Compound 132] | 0 | 0 |  | inhibition at 200 ppm (fungal mycelium): 91.8% |
| CCC#CCn1cc(-c2ccc(Cl)cc2)ccc1=O [Compound 145, 5-(4-chlorophenyl)-1-(2-pentyn-1-yl)-2-pyridinone] | 95 |  |  | inhibition at 1 ppm (fungal inoculum): 96%; pest or weed control at 100 ppm ([2]; protectant): 0% |
| CCC#CCn1cc(-c2ccc(Cl)cc2)cnc1=O [Compound 150] | 99 | 95 |  | inhibition at 50 ppm (fungal inoculum): 48.2% |
| CCC#CCn1nc(-c2ccc(Cl)cc2)c2ccccc2c1=O [Compound 154] | 50 | 0 |  | inhibition at 10 ppm (fungal mycelium): 16% |
| CCC#CCN1N=C2c3ccc(Cl)cc3C(C)C2CC1=O (stereo not drawn) [Compound 155] | 100 | 90 |  | inhibition at 10 ppm (fungal mycelium): 92% |
| C=CC#CCN1N=C2c3ccc(Cl)cc3CC2CC1=O (stereo not drawn) [Compound 156, 7-chloro-2,4,4a,5-tetrahydro-2-(2-pentyn-4-ene-1-yl)-indeno [1,2-c]-pyridazin-3-one] | 100 | 95 |  | inhibition of growth at 100 ppm (Candida albicans; [3]): 100%; inhibition of growth at 100 ppm (Candida albicans; [4]): 100%; inhibition of growth at 100 ppm (Candida albicans; [5]): 100%; inhibition at 1 ppm (fungal mycelium): 100% |
| CCC#CCN1N=C(c2ccc(Cl)cc2)CC=C1Cl [Compound 157, 6-(4-chlorophenyl)-3-chloro-2-(2'-pentyn-1-yl)-2,5-dihydropyridazine] | 10 | 0 |  | inhibition at 10 ppm (fungal mycelium): 100% |
| CCC#CCN1N=C(c2ccc(Cl)cc2)CC=C1n1cncn1 [Compound 159] | 0 | 0 |  | inhibition at 1 ppm (fungal mycelium): 100% |
| CCC#CCN1N=C(c2ccc(Cl)cc2)CC=C1Br [Compound 160] | 0 | 95 |  | inhibition at 1 ppm (fungal mycelium): 100% |
| CCC#CCN1N=C(c2ccc(Cl)cc2)OCC1=O [Compound 161, 2-(4-chlorophenyl)-4-(2-pentyn-1-yl)-4H,6H-1,3,4-oxadiazin-5-one] | 99 | 0 |  | inhibition of growth at 100 ppm (Candida albicans; [3]): 100%; inhibition of growth at 100 ppm (Candida albicans; [4]): 100%; inhibition of growth at 100 ppm (Candida albicans; [5]): 100%; inhibition at 1 ppm (fungal mycelium): 75.9% |
